Measured values taken from ChEMBL document CHEMBL3638656, “Trifluoromethyl-oxadiazole derivatives and their use in the treatment of disease” (2015).

Biological target: Histone deacetylase 4 (Homo sapiens, UniProt P56524)
Assay: Inhibition Assay: Human recombinant HDAC4 was expressed in full length form (aa 2-1084) in Sf9 insect cells (obtained from ATCC) using baculovirus generated with Bac-to-Bac system (Invitrogen). Test compounds were serially diluted to reach final test concentrations from 0.003 uM to 100 uM. HDAC4 and test compounds were incubated in 25 mM Tris buffer pH 8.0 containing 137 mM NaCl, 2.7 mM KCl, 1 mM MgCl2 and 0.05% (w/v) bovine serum albumine for 2 hours at room temperature in presence of 10 uM of acetyl-Gly-Ala-Lys(E-trifluoroacetyl)-AMC (AMC=7-amino-4-methyl coumarin) in a final volume of 200 ul. Control wells with HDAC4 only (positive control) and without HDAC4 (negative control) were included on the microplate. Bovine trypsin (10 ul of a 0.4 mg/ml solution) was added and the plate incubated for additional 15 minutes at room temperature. The plate was placed in a fluorescence microplate reader, and read at an excitation wavelength of 360 nm and an emission wavelength of 450 nm.

Sequence of Histone deacetylase 4 (P56524 whole entry, the tested form may be a part): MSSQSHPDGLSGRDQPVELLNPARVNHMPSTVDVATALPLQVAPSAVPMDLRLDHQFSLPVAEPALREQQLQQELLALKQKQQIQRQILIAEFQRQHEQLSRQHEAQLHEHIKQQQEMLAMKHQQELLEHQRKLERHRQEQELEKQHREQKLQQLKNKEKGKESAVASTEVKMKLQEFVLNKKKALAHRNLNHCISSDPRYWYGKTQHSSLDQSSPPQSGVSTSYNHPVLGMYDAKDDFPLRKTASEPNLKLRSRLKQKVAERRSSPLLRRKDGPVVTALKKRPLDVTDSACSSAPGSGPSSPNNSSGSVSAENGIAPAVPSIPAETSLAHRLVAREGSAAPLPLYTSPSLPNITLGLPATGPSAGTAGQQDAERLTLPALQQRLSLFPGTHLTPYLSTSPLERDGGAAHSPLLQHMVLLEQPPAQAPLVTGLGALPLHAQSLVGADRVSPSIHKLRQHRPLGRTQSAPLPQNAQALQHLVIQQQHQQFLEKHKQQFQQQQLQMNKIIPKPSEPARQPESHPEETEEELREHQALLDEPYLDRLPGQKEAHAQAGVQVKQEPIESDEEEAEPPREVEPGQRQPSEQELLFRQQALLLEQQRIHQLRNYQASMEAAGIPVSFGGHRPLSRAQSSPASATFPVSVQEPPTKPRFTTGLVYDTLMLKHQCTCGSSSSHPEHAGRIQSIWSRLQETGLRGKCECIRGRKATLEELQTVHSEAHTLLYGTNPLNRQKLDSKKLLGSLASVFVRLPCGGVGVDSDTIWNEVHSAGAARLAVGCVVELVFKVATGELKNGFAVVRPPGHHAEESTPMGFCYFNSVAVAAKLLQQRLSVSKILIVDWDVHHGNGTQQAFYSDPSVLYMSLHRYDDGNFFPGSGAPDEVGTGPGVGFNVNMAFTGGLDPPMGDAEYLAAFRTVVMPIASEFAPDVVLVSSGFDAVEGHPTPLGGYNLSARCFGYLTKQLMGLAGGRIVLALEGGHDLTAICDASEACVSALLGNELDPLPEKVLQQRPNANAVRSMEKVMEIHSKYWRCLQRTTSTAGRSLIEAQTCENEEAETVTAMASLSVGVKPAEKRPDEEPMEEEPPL

CCN(C)C[C@@H](C)NC(=O)c1ccc(-c2noc(C(F)(F)F)n2)cc1F
IC50: 72 nM
